Source: PMC6149898, “GPCR Modulation of Thieno[2,3-b]pyridine Anti-Proliferative Agents” (Molecules : A Journal of Synthetic Chemistry and Natural …, 2017)

Key:
ME:MALME-3M = tested on: ME:MALME-3M; parameters: method as in earlier work; conditions: NCI-60 panel; ref [4],[5],[6],[7]; cited from earlier work
CO:SW-620 = tested on: CO:SW-620; parameters: method as in earlier work; conditions: NCI-60 panel; ref [4],[5],[6],[7]; cited from earlier work
ADRA1B = ADRA1B (Homo sapiens, UniProt P35368); assay: gpcrMAX PathHunter beta-arrestin
ME:SK-MEL-5 = tested on: ME:SK-MEL-5; parameters: method as in earlier work; conditions: NCI-60 panel; ref [4],[5],[6],[7]; cited from earlier work
SSTR2 = SSTR2 (Homo sapiens, UniProt P30874); assay: gpcrMAX PathHunter beta-arrestin
CNS:SNB-75 = tested on: CNS:SNB-75; parameters: method as in earlier work; conditions: NCI-60 panel; ref [4],[5],[6],[7]; cited from earlier work
OPRK1 = OPRK1 (Homo sapiens, UniProt P41145); assay: gpcrMAX PathHunter beta-arrestin
LE:SR = tested on: LE:SR; parameters: method as in earlier work; conditions: NCI-60 panel; ref [4],[5],[6],[7]; cited from earlier work
MRGPRX1 = MRGPRX1 (Homo sapiens, UniProt Q96LB2); assay: gpcrMAX PathHunter beta-arrestin
PTHR1 = PTHR1 (Homo sapiens, UniProt Q03431); assay: gpcrMAX PathHunter beta-arrestin
GCGR = GCGR (Homo sapiens, UniProt P47871); assay: gpcrMAX PathHunter beta-arrestin
LC:NCI-H226 = tested on: LC:NCI-H226; parameters: method as in earlier work; conditions: NCI-60 panel; ref [4],[5],[6],[7]; cited from earlier work
CO:HCT-15 = tested on: CO:HCT-15; parameters: method as in earlier work; conditions: NCI-60 panel; ref [4],[5],[6],[7]; cited from earlier work
CXCR7 = CXCR7 (Homo sapiens, UniProt P25106); assay: gpcrMAX PathHunter beta-arrestin
BDKRB2 = BDKRB2 (Homo sapiens, UniProt P30411); assay: gpcrMAX PathHunter beta-arrestin
CXCR5 = CXCR5 (Homo sapiens, UniProt P32302); assay: gpcrMAX PathHunter beta-arrestin
CCKAR = CCKAR (Homo sapiens, UniProt P32238); assay: gpcrMAX PathHunter beta-arrestin
RE:CAKI-1 = tested on: RE:CAKI-1; parameters: method as in earlier work; conditions: NCI-60 panel; ref [4],[5],[6],[7]; cited from earlier work
LE:HL-60(TB) = tested on: LE:HL-60(TB); parameters: method as in earlier work; conditions: NCI-60 panel; ref [4],[5],[6],[7]; cited from earlier work
CHRM5 = CHRM5 (Homo sapiens, UniProt P08912); assay: gpcrMAX PathHunter beta-arrestin
PROKR2 = PROKR2 (Homo sapiens, UniProt Q8NFJ6); assay: gpcrMAX PathHunter beta-arrestin
LE:CCRF-CEM = tested on: LE:CCRF-CEM; parameters: method as in earlier work; conditions: NCI-60 panel; ref [4],[5],[6],[7]; cited from earlier work
OV:IGROV1 = tested on: OV:IGROV1; parameters: method as in earlier work; conditions: NCI-60 panel; ref [4],[5],[6],[7]; cited from earlier work
EDG7 = EDG7 (Homo sapiens, UniProt Q9UBY5); assay: gpcrMAX PathHunter beta-arrestin
ADRA2C = ADRA2C (Homo sapiens, UniProt P18825); assay: gpcrMAX PathHunter beta-arrestin
AVPR1A = AVPR1A (Homo sapiens, UniProt P37288); assay: gpcrMAX PathHunter beta-arrestin
LE:K-562 = tested on: LE:K-562; parameters: method as in earlier work; conditions: NCI-60 panel; ref [4],[5],[6],[7]; cited from earlier work
NPFFR1 = NPFFR1 (Homo sapiens, UniProt Q9GZQ6); assay: gpcrMAX PathHunter beta-arrestin
KISS1R = KISS1R (Homo sapiens, UniProt Q969F8); assay: gpcrMAX PathHunter beta-arrestin
CXCR6 = CXCR6 (Homo sapiens, UniProt O00574); assay: gpcrMAX PathHunter beta-arrestin
OXTR = OXTR (Homo sapiens, UniProt P30559); assay: gpcrMAX PathHunter beta-arrestin
GIPR = GIPR (Homo sapiens, UniProt P48546); assay: gpcrMAX PathHunter beta-arrestin
PTAFR = PTAFR (Homo sapiens, UniProt P25105); assay: gpcrMAX PathHunter beta-arrestin
ADRA2A = ADRA2A (Homo sapiens, UniProt P08913); assay: gpcrMAX PathHunter beta-arrestin
GPR103 = GPR103 (Homo sapiens, UniProt Q96P65); assay: gpcrMAX PathHunter beta-arrestin
LC:HOP-62 = tested on: LC:HOP-62; parameters: method as in earlier work; conditions: NCI-60 panel; ref [4],[5],[6],[7]; cited from earlier work
PTGER3 = PTGER3 (Homo sapiens, UniProt P43115); assay: gpcrMAX PathHunter beta-arrestin
CCR7 = CCR7 (Homo sapiens, UniProt P32248); assay: gpcrMAX PathHunter beta-arrestin
BR:HS 578T = tested on: BR:HS 578T; parameters: method as in earlier work; conditions: NCI-60 panel; ref [4],[5],[6],[7]; cited from earlier work
NPY1R = NPY1R (Homo sapiens, UniProt P25929); assay: gpcrMAX PathHunter beta-arrestin
MC1R = MC1R (Homo sapiens, UniProt Q01726); assay: gpcrMAX PathHunter beta-arrestin

Chain of CCKAR (P32238 whole entry): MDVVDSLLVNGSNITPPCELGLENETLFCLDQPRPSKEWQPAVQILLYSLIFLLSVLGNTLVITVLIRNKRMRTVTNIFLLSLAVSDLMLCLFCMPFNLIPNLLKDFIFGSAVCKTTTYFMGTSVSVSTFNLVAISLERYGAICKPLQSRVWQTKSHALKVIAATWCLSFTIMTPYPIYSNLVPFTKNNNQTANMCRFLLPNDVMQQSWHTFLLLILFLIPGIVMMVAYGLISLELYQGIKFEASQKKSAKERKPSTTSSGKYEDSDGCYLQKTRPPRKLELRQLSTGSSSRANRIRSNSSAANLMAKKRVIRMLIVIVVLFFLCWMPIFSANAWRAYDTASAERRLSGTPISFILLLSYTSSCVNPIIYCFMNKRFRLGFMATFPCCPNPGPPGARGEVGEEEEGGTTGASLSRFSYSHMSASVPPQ
Chain of BDKRB2 (P30411 whole entry): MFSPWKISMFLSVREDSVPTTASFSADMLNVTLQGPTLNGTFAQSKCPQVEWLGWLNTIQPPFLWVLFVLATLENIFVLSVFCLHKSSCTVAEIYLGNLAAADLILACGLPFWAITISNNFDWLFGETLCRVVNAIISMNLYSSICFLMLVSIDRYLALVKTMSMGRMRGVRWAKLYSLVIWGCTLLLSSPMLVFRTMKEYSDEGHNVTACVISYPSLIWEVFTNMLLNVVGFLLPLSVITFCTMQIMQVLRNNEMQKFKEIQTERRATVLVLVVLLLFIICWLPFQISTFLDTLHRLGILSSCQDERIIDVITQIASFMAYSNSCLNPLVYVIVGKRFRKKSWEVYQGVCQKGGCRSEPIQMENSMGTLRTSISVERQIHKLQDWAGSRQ
Chain of CXCR6 (O00574 whole entry): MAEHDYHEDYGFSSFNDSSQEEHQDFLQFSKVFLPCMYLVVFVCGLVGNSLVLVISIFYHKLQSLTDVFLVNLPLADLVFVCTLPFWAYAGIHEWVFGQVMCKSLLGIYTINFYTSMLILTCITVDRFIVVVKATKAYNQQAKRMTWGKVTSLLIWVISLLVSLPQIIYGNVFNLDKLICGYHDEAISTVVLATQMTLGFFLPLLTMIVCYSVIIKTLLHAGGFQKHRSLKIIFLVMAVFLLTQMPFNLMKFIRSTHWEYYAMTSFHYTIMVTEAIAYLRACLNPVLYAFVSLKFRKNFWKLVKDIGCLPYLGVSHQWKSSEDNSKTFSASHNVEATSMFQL
Chain of EDG7 (Q9UBY5 whole entry): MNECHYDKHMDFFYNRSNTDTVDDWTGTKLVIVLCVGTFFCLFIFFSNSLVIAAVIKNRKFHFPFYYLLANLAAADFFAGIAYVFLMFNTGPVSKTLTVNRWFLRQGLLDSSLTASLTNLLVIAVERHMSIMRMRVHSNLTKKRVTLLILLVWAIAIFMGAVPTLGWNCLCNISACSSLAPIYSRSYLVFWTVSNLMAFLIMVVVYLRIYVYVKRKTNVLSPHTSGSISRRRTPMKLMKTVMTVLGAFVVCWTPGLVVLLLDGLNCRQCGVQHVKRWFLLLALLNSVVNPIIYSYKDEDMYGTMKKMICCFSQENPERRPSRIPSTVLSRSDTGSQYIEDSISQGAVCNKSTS
Chain of SSTR2 (P30874 whole entry): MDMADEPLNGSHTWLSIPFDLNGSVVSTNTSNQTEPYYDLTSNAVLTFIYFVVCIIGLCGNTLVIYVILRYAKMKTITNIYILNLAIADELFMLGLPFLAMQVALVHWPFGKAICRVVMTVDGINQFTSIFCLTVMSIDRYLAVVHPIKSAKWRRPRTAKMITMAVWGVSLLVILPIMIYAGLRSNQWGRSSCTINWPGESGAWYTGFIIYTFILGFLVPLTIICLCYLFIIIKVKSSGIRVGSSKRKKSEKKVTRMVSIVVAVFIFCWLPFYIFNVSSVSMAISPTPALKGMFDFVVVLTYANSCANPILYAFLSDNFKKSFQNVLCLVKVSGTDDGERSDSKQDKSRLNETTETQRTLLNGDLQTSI
Chain of CXCR5 (P32302 whole entry): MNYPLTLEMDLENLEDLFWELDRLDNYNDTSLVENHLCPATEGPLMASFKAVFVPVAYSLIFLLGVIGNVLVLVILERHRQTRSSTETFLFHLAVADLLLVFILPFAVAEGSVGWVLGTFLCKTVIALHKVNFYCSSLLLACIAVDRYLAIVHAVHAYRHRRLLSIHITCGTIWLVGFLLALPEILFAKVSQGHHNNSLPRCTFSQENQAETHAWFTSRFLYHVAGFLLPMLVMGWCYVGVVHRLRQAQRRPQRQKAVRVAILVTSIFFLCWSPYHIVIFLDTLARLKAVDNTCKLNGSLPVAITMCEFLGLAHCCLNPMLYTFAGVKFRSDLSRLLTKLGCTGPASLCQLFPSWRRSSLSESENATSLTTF
Chain of PTGER3 (P43115 whole entry): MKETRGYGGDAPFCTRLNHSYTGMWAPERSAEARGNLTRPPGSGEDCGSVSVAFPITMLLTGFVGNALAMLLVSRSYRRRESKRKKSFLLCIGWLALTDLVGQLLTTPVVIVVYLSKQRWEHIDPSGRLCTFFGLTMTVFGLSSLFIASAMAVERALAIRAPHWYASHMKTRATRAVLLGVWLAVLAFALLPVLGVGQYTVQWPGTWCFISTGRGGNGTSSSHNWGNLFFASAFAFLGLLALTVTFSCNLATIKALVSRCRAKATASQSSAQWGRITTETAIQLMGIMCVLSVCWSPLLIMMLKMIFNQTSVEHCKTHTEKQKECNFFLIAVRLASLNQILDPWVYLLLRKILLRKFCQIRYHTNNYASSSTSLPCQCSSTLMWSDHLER
Chain of CHRM5 (P08912 whole entry): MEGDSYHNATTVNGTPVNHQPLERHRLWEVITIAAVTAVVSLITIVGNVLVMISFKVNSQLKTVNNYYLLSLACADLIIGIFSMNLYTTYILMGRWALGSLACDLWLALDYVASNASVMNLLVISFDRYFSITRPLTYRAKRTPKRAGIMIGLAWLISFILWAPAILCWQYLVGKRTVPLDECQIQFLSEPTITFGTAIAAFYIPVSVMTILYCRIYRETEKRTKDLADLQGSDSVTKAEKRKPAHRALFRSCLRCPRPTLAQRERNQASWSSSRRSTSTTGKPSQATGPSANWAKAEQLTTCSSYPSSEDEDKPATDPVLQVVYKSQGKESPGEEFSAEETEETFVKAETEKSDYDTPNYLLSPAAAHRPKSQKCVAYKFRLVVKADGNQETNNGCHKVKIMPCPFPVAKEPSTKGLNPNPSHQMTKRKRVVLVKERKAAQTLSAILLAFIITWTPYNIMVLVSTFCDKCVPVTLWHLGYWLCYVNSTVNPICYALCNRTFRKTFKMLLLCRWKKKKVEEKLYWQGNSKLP
Chain of GCGR (P47871 26-477): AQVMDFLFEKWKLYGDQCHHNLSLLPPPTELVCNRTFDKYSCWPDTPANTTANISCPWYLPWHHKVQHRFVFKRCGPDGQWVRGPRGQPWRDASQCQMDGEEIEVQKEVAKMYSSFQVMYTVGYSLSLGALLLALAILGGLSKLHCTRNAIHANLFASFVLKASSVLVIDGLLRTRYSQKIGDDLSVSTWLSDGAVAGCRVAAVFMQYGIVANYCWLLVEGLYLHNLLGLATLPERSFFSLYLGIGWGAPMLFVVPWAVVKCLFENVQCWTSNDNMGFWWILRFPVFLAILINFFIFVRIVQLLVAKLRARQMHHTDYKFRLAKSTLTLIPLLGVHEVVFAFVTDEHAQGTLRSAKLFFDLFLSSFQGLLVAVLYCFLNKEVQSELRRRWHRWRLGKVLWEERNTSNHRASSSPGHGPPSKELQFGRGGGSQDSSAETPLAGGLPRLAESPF
Chain of PTAFR (P25105 whole entry): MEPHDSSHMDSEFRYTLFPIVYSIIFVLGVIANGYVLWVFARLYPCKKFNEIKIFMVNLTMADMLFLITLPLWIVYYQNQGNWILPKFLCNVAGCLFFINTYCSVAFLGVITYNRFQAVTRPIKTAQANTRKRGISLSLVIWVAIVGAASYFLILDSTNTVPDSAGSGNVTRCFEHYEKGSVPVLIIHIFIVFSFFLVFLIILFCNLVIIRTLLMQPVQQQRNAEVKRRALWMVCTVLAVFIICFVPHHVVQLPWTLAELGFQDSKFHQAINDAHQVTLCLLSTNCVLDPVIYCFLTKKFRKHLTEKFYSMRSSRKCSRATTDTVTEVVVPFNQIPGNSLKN
Chain of ADRA1B (P35368 whole entry): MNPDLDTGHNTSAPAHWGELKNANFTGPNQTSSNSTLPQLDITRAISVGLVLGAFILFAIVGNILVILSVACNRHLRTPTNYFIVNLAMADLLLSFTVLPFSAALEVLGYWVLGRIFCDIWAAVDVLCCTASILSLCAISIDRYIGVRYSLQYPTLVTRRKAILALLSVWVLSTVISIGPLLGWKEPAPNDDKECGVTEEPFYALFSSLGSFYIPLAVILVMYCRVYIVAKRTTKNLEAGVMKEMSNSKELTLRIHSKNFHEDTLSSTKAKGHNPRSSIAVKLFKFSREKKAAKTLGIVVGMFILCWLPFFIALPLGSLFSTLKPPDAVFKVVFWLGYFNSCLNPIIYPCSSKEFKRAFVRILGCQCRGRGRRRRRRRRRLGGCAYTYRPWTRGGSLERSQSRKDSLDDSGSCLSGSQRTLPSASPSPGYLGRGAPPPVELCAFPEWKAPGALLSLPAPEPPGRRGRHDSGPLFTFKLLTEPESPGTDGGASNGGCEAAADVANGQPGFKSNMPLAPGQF
Chain of MRGPRX1 (Q96LB2 whole entry): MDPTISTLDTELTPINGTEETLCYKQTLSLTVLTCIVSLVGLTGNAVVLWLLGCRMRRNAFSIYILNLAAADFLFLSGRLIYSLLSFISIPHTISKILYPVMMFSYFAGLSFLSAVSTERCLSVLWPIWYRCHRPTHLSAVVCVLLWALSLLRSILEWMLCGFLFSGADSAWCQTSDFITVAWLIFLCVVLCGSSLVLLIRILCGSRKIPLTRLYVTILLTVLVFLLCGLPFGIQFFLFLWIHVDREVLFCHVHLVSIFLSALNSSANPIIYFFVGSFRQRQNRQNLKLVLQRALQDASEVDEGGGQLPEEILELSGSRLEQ

## Cc1c(Cl)cccc1NC(=O)c1sc2nc3c(cc2c1N)C(=O)CCC3 [Compound 1]
ME:MALME-3M
  GI50: 36.3 nM
CO:SW-620
  GI50: 48.6 nM
ADRA1B
  inhibition at 10 µM: 11%
ME:SK-MEL-5
  GI50: 237 nM
SSTR2
  inhibition at 10 µM: 9%
CNS:SNB-75
  GI50: 40.3 nM
OPRK1
  inhibition at 10 µM: -162%
LE:SR
  GI50: 74.2 nM
MRGPRX1
  inhibition at 10 µM: 6%
PTHR1
  inhibition at 10 µM: 12%
GCGR
  inhibition at 10 µM: 12%
LC:NCI-H226
  GI50: 102 nM
CO:HCT-15
  GI50: 70.5 nM
CXCR7
  inhibition at 10 µM: -15%
BDKRB2
  inhibition at 10 µM: 1%
CXCR5
  inhibition at 10 µM: 0%
CCKAR
  inhibition at 10 µM: 6%
RE:CAKI-1
  GI50: 46.1 nM
LE:HL-60(TB)
  GI50: 103 nM
CHRM5
  inhibition at 10 µM: 8%
PROKR2
  inhibition at 10 µM: -3%
LE:CCRF-CEM
  GI50: 141 nM
OV:IGROV1
  GI50: 196 nM
EDG7
  inhibition at 10 µM: -8%
ADRA2C
  inhibition at 10 µM: -14%
AVPR1A
  inhibition at 10 µM: -12%
LE:K-562
  GI50: 37.5 nM
NPFFR1
  inhibition at 10 µM: -55%
KISS1R
  inhibition at 10 µM: 5%
CXCR6
  inhibition at 10 µM: 5%
OXTR
  inhibition at 10 µM: 7%
GIPR
  inhibition at 10 µM: 2%
PTAFR
  inhibition at 10 µM: 2%
ADRA2A
  inhibition at 10 µM: 8%
GPR103
  inhibition at 10 µM: -5%
LC:HOP-62
  GI50: 110 nM
PTGER3
  inhibition at 10 µM: 11%
CCR7
  inhibition at 10 µM: 34%
BR:HS 578T
  GI50: 48.2 nM
NPY1R
  inhibition at 10 µM: 11%
MC1R
  inhibition at 10 µM: -16%
